# ChEMBL document CHEMBL2311354, “C-3 halo and 3-methyl substituted 5'-nor-3-deazaaristeromycins: synthesis and antiviral properties” (Bioorg Med Chem, 2013)
# Calls of active or inactive are those of the source. The calls are words filed in the database; no cut-off is given here.
# Tests used:
# [1] = Selectivity index, ratio of CC50 for african green monkey CV1 cells to EC50 for Measles virus; assay type: toxicity, cell-based, CV-1; conditions: read-out: Ratio CC50/EC50
# [2] = Cytotoxicity against MDCK cells assessed as reduction of cell viability; assay type: cell-based, Canis lupus familiaris; conditions: dog
# [3] = Selectivity index, ratio of CC50 for MDCK cells to EC50 for influenza B virus; assay type: toxicity, cell-based; conditions: dog, read-out: Ratio CC50/EC50
# Coxsackievirus B4 = test: Antiviral activity against Human coxsackievirus B4 infected in african green monkey Vero cells assessed as reduction of viral replication; assay type: functional, organism-based
# [4] = test system: Human immunodeficiency virus 2; test: Antiviral activity against HIV2 infected in human CEM cells assessed as reduction of viral replication; assay type: functional, organism-based; conditions: CCRF-CEM
# [5] = Cytotoxicity against human HepG2.215 cells assessed as reduction of cell viability; assay type: cell-based, HepG2 2.2.15
# Sindbis virus = test: Antiviral activity against Sindbis virus infected in african green monkey Vero cells assessed as reduction of viral replication; assay type: functional, organism-based
# Human alphaherpesvirus 3 = test: Antiviral activity against Varicella-zoster virus infected in human HFF cells assessed as reduction of viral replication; assay type: functional, organism-based; conditions: for EC50: Human alphaherpesvirus 3, HFF
# Feline coronavirus = test: Antiviral activity against Feline coronavirus infected in cat CRFK cells assessed as reduction of viral replication; assay type: functional, organism-based
# Human gammaherpesvirus 4 = test: Antiviral activity against Epstein-Barr virus infected in human HFF cells assessed as reduction of viral replication; assay type: functional, organism-based
# Influenza A virus [6] = test: Antiviral activity against influenza A H3N2 infected in MDCK cells assessed as reduction of viral replication; assay type: functional, organism-based
# Influenza A virus [7] = test: Antiviral activity against influenza A H1N1 infected in MDCK cells assessed as reduction of viral replication; assay type: functional, organism-based
# West Nile virus = test: Antiviral activity against West Nile virus infected in african green monkey Vero cells assessed as reduction of viral replication; assay type: functional, organism-based
# Influenza A virus [8] = test: Antiviral activity against influenza A virus H5N1 infected in MDCK cells assessed as reduction of viral replication; assay type: functional, organism-based
# Cytomegalovirus = test: Antiviral activity against human cytomegalovirus infected in human HFF cells assessed as reduction of viral replication; assay type: functional, organism-based; conditions: for EC50: Human betaherpesvirus 5, HFF
# Human alphaherpesvirus 1 = test: Antiviral activity against HSV1 infected in human HEL cells assessed as reduction of viral replication; assay type: functional, organism-based
# [9] = Selectivity index, ratio of CC50 for MDCK cells to EC50 for influenza A virus H5N1; assay type: toxicity, cell-based; conditions: dog, read-out: Ratio CC50/EC50
# Punta Toro virus = test: Antiviral activity against Punta Toro virus infected in african green monkey Vero cells assessed as reduction of viral replication; assay type: functional, organism-based
# [10] = test system: Respiratory syncytial virus; test: Antiviral activity against Respiratory syncytial virus infected in monkey MA104 cells assessed as reduction of viral replication; assay type: functional, organism-based
# unidentified adenovirus = test: Antiviral activity against Adenovirus infected in human A549 cells assessed as reduction of viral replication; assay type: functional, organism-based
# Rift Valley fever virus = test: Antiviral activity against Rift Valley fever virus infected in african green monkey Vero 76 cells assessed as reduction of viral replication; assay type: functional, organism-based
# [11] = Selectivity index, ratio of CC50 for human HFF cells to EC50 for human cytomegalovirus; assay type: toxicity, cell-based; conditions: read-out: Ratio CC50/EC50
# Dengue virus = test: Antiviral activity against Dengue virus infected in african green monkey Vero cells assessed as reduction of viral replication; assay type: functional, organism-based
# [12] = Selectivity index, ratio of CC50 for human HepG2.215 cells to EC50 for Hepatitis B virus; assay type: toxicity; conditions: read-out: Ratio CC50/EC50
# [13] = test system: Mammalian orthoreovirus 1; test: Antiviral activity against Reovirus 1 infected in african green monkey Vero cells assessed as reduction of viral replication; assay type: functional, organism-based; conditions: for EC50: Mammalian orthoreovirus 1, Vero
# [14] = test system: Vesicular stomatitis virus; test: Antiviral activity against Vesicular stomatitis virus infected in human HEL cells assessed as reduction of viral replication; assay type: functional, organism-based
# Influenza B virus = test: Antiviral activity against influenza B virus infected in MDCK cells assessed as reduction of viral replication; assay type: functional, organism-based
# [15] = Cytotoxicity against african green monkey CV1 cells assessed as reduction of cell viability; assay type: cell-based, CV-1; conditions: chlorocebus aethiops
# Cowpox virus = test: Antiviral activity against Cowpox virus infected in human HFF cells assessed as reduction of viral replication; assay type: functional, organism-based
# Measles morbillivirus = test: Antiviral activity against Measles virus infected in african green monkey CV1 cells assessed as reduction of viral replication; assay type: functional, organism-based; conditions: CV-1
# [16] = test system: Human immunodeficiency virus 1; test: Antiviral activity against HIV1 infected in human CEM cells assessed as reduction of viral replication; assay type: functional, organism-based; conditions: CCRF-CEM
# Vaccinia virus = test: Antiviral activity against Vaccinia virus infected in human HEL cells assessed as reduction of viral replication; assay type: functional, organism-based; conditions: Orthopoxvirus vaccinia
# Enterovirus = test: Antiviral activity against Rhinovirus infected in human HeLa Ohio1 cells assessed as reduction of viral replication; assay type: functional, organism-based
# Tacaribe virus = test: Antiviral activity against Tacaribe virus infected in african green monkey Vero 76 cells assessed as reduction of viral replication; assay type: functional, organism-based; conditions: Mammarenavirus tacaribeense
# Human alphaherpesvirus 2 = test: Antiviral activity against HSV2 infected in human HEL cells assessed as reduction of viral replication; assay type: functional, organism-based
# Yellow fever virus = test: Antiviral activity against Yellow fever virus infected in african green monkey Vero cells assessed as reduction of viral replication; assay type: functional, organism-based
# [17] = Selectivity index, ratio of CC50 for human HFF cells to EC50 for Varicella-zoster virus; assay type: toxicity, cell-based; conditions: read-out: Ratio CC50/EC50
# [18] = Cytotoxicity against human HEL cells assessed as concentration required to cause microscopically alternation of cellular morphology; assay type: cell-based
# Hepatitis B virus = test: Antiviral activity against Hepatitis B virus infected in human HepG 2.215 cells assessed as reduction of viral replication; assay type: functional, organism-based; conditions: for EC50: HepG2.2.15
# [19] = Cytotoxicity against human HFF cells assessed as reduction of cell viability; assay type: cell-based
# Human respirovirus 3 = test: Antiviral activity against Human parainfluenzae virus 3 infected in african green monkey Vero cells assessed as reduction of viral replication; assay type: functional, organism-based; conditions: for EC50: Human respirovirus 3, Vero
# [20] = Cytotoxicity against african green monkey Vero cells assessed as concentration required to cause microscopically alternation of cellular morphology; assay type: cell-based; conditions: chlorocebus sabaeus
smiles,measurement,setting,value
Nc1ncc(I)c2c1ncn2[C@@H]1C[C@H](O)[C@@H](O)[C@H]1O,selectivity ratio,[1],23
same,CC50,[2],> 242 µM
same,selectivity ratio,[3],> 111
same,Activity,Coxsackievirus B4,inactive
same,Activity,[4],inactive
same,CC50,[5],> 300 µM
same,Activity,Sindbis virus,inactive
same,EC50,Human alphaherpesvirus 3,> 60 µM
same,Activity,Feline coronavirus,inactive
same,Activity,Human gammaherpesvirus 4,inactive
same,Activity,Influenza A virus [6],inactive
same,Activity,Influenza A virus [7],inactive
same,Activity,West Nile virus,inactive
same,EC50,Influenza A virus [8],44 µM
same,EC50,Cytomegalovirus,1.2 µM
same,Activity,Human alphaherpesvirus 1,inactive
same,selectivity ratio,[9],> 6
same,EC50,Punta Toro virus,> 20 µM
same,Activity,[10],inactive
same,Activity,unidentified adenovirus,inactive
same,Activity,Rift Valley fever virus,inactive
same,selectivity ratio,[11],182
same,Activity,Dengue virus,inactive
same,selectivity ratio,[12],> 370
same,EC50,[13],4 µM
same,EC50,[14],4 µM
same,EC50,Influenza B virus,2.2 µM
same,CC50,[15],67 µM
same,Activity,Cowpox virus,inactive
same,EC50,Measles morbillivirus,2.9 µM
same,Activity,[16],inactive
same,EC50,Vaccinia virus,4 µM
same,Activity,Enterovirus,inactive
same,Activity,Tacaribe virus,inactive
same,Activity,Human alphaherpesvirus 2,inactive
same,Activity,Yellow fever virus,inactive
same,selectivity ratio,[17],< 3.4
same,MCC,[18],> 100 µM
same,EC50,Hepatitis B virus,0.808 µM
same,CC50,[19],201 µM
same,EC50,Human respirovirus 3,20 µM
same,MCC,[20],100 µM
Nc1ncc(Cl)c2c1ncn2[C@@H]1C[C@H](O)[C@@H](O)[C@H]1O,selectivity ratio,[1],> 1730
same,CC50,[2],> 311 µM
same,selectivity ratio,[3],> 500
same,Activity,Coxsackievirus B4,inactive
same,Activity,[4],inactive
same,CC50,[5],> 300 µM
same,Activity,Sindbis virus,inactive
same,EC50,Human alphaherpesvirus 3,> 300 µM
same,Activity,Feline coronavirus,inactive
same,Activity,Human gammaherpesvirus 4,inactive
same,Activity,Influenza A virus [6],inactive
same,Activity,Influenza A virus [7],inactive
same,Activity,West Nile virus,inactive
same,EC50,Influenza A virus [8],4 µM
same,Activity,Human alphaherpesvirus 1,inactive
same,selectivity ratio,[9],> 77
same,EC50,Punta Toro virus,24 µM
same,Activity,[10],inactive
same,Activity,unidentified adenovirus,inactive
same,Activity,Rift Valley fever virus,inactive
same,Activity,Dengue virus,inactive
same,EC50,[13],1.6 µM
same,EC50,[14],8 µM
same,EC50,Influenza B virus,0.62 µM
same,CC50,[15],311 µM
same,Activity,Cowpox virus,inactive
same,EC50,Measles morbillivirus,0.18 µM
same,Activity,[16],inactive
same,EC50,Vaccinia virus,120 µM
same,Activity,Enterovirus,inactive
same,Activity,Tacaribe virus,inactive
same,Activity,Human alphaherpesvirus 2,inactive
same,Activity,Yellow fever virus,inactive
same,MCC,[18],> 100 µM
same,EC50,Hepatitis B virus,> 10 µM
same,CC50,[19],> 300 µM
same,EC50,Human respirovirus 3,1.6 µM
same,MCC,[20],> 200 µM
Nc1ncc(Br)c2c1ncn2[C@@H]1C[C@H](O)[C@@H](O)[C@H]1O,CC50,[2],> 273 µM
same,selectivity ratio,[3],> 100
same,Activity,Coxsackievirus B4,inactive
same,Activity,[4],inactive
same,CC50,[5],> 10 µM
same,Activity,Sindbis virus,inactive
same,EC50,Human alphaherpesvirus 3,0.11 µM
same,Activity,Feline coronavirus,inactive
same,Activity,Human gammaherpesvirus 4,inactive
same,Activity,Influenza A virus [6],inactive
same,Activity,Influenza A virus [7],inactive
same,Activity,West Nile virus,inactive
same,EC50,Cytomegalovirus,1.7 µM
same,Activity,Human alphaherpesvirus 1,inactive
same,EC50,Punta Toro virus,> 8 µM
same,Activity,[10],inactive
same,Activity,unidentified adenovirus,inactive
same,Activity,Rift Valley fever virus,inactive
same,selectivity ratio,[11],> 175
same,Activity,Dengue virus,inactive
same,selectivity ratio,[12],> 454
same,EC50,[13],1.6 µM
same,EC50,[14],> 200 µM
same,EC50,Influenza B virus,27 µM
same,CC50,[15],> 273 µM
same,Activity,Cowpox virus,inactive
same,EC50,Measles morbillivirus,> 273 µM
same,Activity,[16],inactive
same,EC50,Vaccinia virus,24 µM
same,Activity,Enterovirus,inactive
same,Activity,Tacaribe virus,inactive
same,Activity,Human alphaherpesvirus 2,inactive
same,Activity,Yellow fever virus,inactive
same,selectivity ratio,[17],> 2630
same,MCC,[18],> 200 µM
same,EC50,Hepatitis B virus,0.022 µM
same,CC50,[19],> 300 µM
same,EC50,Human respirovirus 3,8 µM
same,MCC,[20],> 8 µM
Cc1cnc(N)c2ncn([C@@H]3C[C@H](O)[C@@H](O)[C@H]3O)c12,Activity,Coxsackievirus B4,inactive
same,Activity,[4],inactive
same,Activity,Sindbis virus,inactive
same,Activity,Human alphaherpesvirus 3,inactive
same,Activity,Feline coronavirus,inactive
same,Activity,Human gammaherpesvirus 4,inactive
same,Activity,Influenza A virus [6],inactive
same,Activity,Influenza A virus [7],inactive
same,Activity,West Nile virus,inactive
same,Activity,Influenza A virus [8],inactive
same,Activity,Cytomegalovirus,inactive
same,Activity,Human alphaherpesvirus 1,inactive
same,Activity,Punta Toro virus,inactive
same,Activity,[10],inactive
same,Activity,unidentified adenovirus,inactive
same,Activity,Rift Valley fever virus,inactive
same,Activity,Dengue virus,inactive
same,Activity,[13],inactive
same,Activity,[14],inactive
same,Activity,Influenza B virus,inactive
same,Activity,Cowpox virus,inactive
same,Activity,Measles morbillivirus,inactive
same,Activity,[16],inactive
same,Activity,Vaccinia virus,inactive
same,Activity,Enterovirus,inactive
same,Activity,Tacaribe virus,inactive
same,Activity,Human alphaherpesvirus 2,inactive
same,Activity,Yellow fever virus,inactive
same,Activity,Hepatitis B virus,inactive
same,Activity,Human respirovirus 3,inactive
